Patent US20240285769A1, “INJECTABLE, BIODEGRADABLE AND REMOVABLE POLYMER BASED DRUG SUSPENSION FOR ULTRA-LONG-ACTING DRUG DELIVERY” (The University of North Carolina at Chapel Hill, priority 2021, published 2024)
Where a name gives a salt, the structure may show the parent alone.

Experiments:
[1] = In vitro release of chemotherapeutic ISFIs; type: physicochemical
Protocol: ISFI formulations were prepared with two different chemotherapeutic drugs, paclitaxel (PTX) and gemcitabine (Gem) and investigated for in vitro release kinetics (PTX and Gem ISFIs; FIGS. 21A-21C and 22A-22B) and for in vivo safety and pharmacokinetics (PTX ISFI; FIG. 23).

[2] = Drug saturation solubility studies; type: physicochemical; conditions: for solubility: 21 °C, thermodynamic from solid
Protocol: The saturation concentration of each drug in various solvents and/or solvent combinations was determined. Drugs were then formulated in ISFI formulations containing 1:1, 1:1.5, 1:2, or 1:4 w/w ratios of PLGA/solvent, as exemplary starting points. For example, for DTG, 25 mg of DTG was added to individual vials containing 100 mg of solvent or PLGA/N-MP placebo ISFI solution. The mixture was mixed thoroughly using a vortex with short-warming for several cycles, and stirred at room temperature (RT), e.g. about 20-22° C., for about 24-48 h. Samples were subsequently centrifuged for 30 min at 13,000 rpm (Eppendorf Centrifuge 5417C, USA) to remove excess undissolved drug. Sample aliquots (1 mg, n=4) were collected from the saturated supernatant and diluted with acetonitrile (ACN). Drug concentration in the saturated aliquots was determined by HPLC analysis.
A reverse-phase HPLC analysis was carried out with a Finnigan Surveyor HPLC system (Thermo Finnigan, San Jose, California, USA) with a Photodiode Array (PDA) Plus Detector, auto-sampler, and LC Pump Plus. The stationary phase utilized for the analysis was a Inertsil ODS-3 column (4 μm, 4.6 Å˜150 mm, [GL Sciences, Torrance, CA]) maintained at 40° C. Chromatographic separation was achieved by gradient elution using a mobile phase consisting of 0.1% trifluoroacetic acid in water and ACN (H2O/ACN 95:5 v/v). The flow rate was 1.0 mL/min and the total run time was 25 min for each 25 μL injection.

[3] = CAB MPT ISFI in vitro release studies; type: physicochemical; conditions: for in vitro release as single-drug ISFI versus co-formulated: CAB with either hormone, MPA or ENG with CAB (ENG up to 60 days)
Protocol: Drug release kinetics from various implant formulations was evaluated by incubating solid implants (25 mg±5 mg) into 200 mL of release medium under sink conditions (0.01 M PBS pH 7.4 with 2% solutol HS) at 37° C. for up to 6 months. Sample aliquots (1 mL) were collected at various time points and replaced with fresh release medium. The release medium was completely removed and replaced with fresh medium every week to maintain sink conditions. Drug concentration in the release samples was quantified by HPLC using the method described above. Cumulative drug release was calculated from the HPLC analysis and normalized to the total mass of drug in the implant. All experiments were performed in quadruplicate.
In vitro release of single-drug ISFIs vs. MPT ISFIs were evaluated to assess drug-drug interactions. All ISFI liquid suspensions were stable and homogenous, elicited <15% burst release, sustained release for 90 days, and above target release rates.

[4] = In vivo pharmacokinetics of MPT ISFI formulations; parameters: species or system mice
Protocol: FIGS. 18A to 18E. Drug concentrations in plasma of MPT ISFI formulations. Plasma concentrations of (FIG. 18A) DTG (278 mg/kg, 50 μL injection) when co-formulated with MPA or ENG (n=6-12/timepoint per group), (FIG. 18B) CAB (1215 mg/kg, 50 μL injection) when co-formulated with MPA or ENG (n=6-12/timepoint per group), (FIG. 18C) MPA (70-76 mg/kg, 50 μL injection) when co-formulated with DTG or CAB (n=6-12/timepoint per group), and (FIG. 18D) ENG (70-151 mg/kg, 50 μL injection) when co-formulated with DTG or CAB (n=6-12/timepoint per group). […] (FIG. 18E) R^2 values for mathematical models of zero-order, first-order, and diffusion-controlled (Higuchi) release.
Pharmacokinetic (PK) studies were carried out in mice over 90 days to assess in vivo drug release of MPT ISFI formulations. DTG, CAB, ENG, and MPA plasma concentrations were quantified using a high-performance liquid chromatography-tandem mass spectrometry LC/MS-MS method and were plotted over 90 days (FIG. 18).
Moreover, the release kinetics of DTG, CAB, MPA, and ENG were assessed against three mathematical models (zero-order, first-order, and diffusion-controlled (Higuchi) (Gouda, Baishya et al. 2017)).

[5] = Suspension stability studies; type: physicochemical; conditions: polymer:solvent 1:2
Protocol: Eight (8) formulations were prepared and evaluated for stability. The formulations were placed in a water bath at 37° C. with shaking overnight and then vortexed for about 2 min upon removal. Sample aliquots (about 1 mg, n=4) were collected from each formulation and analyzed by HPLC to determine drug homogeneity distribution within the formulation. All suspension formulations were reevaluated for homogeneity after at least 24 h storage at room temperature (RT) to determine stability of suspensions at RT.

[6] = Preparation and optimization of drug suspension formulations; type: physicochemical; conditions: for depot formation when injected into aqueous release medium: PBS, pH 7.4, 37° C.
Protocol: The polymer based drug suspensions were prepared by: (1) Placebo formulation: 50:50 Poly(DL-lactide-co-glycolide) (PLGA), MW 10 or 27 kDa, or Poly(lactic acid) (PLA) MW 10 kDa, was mixed with N-methyl-2-pyrrolidone (NMP) or a combination of NMP and DMSO (e.g. 1:1 v/v) at various weight ratios of PLGA/solvent (w/w) and allowed to dissolve by continuous mixing at room temperature (Placebo). […] (2) Drug loading: […] (3) Depot formation: A sample from the resulting drug-loaded suspension formulation (30 μL, 30±3 mg) was injected into 200 mL of 0.01 M PBS pH 7.4 using a pipette and incubated at 37° C. for 24 h to produce a spherical implant, as an example. […] Of importance, but without being limited to any particular theory or mechanism of action, is the ratio of the polymer:solvent:drug that achieves high drug loading in a stable polymeric suspension formulation and which is correlated to the drug's saturation solubility in the solvent system.

HIV = conditions: protein-adjusted, cited from earlier work; for 4×PA-IC90: benchmark for protection
[7] = published CAB population PK model, mean parameter; cited from earlier work
[8] = 167 mg/g in 6:1 w/w PLA (10 kDa):Pluronic L61, NMP
[9] = 200 mg/g in 9:1 w/w PLA (10 kDa):Pluronic L61, NMP
[10] = DMSO, organic solvent or mixture, solvent DMSO

With `Nc1ccn([C@@H]2O[C@H](CO)[C@@H](O)C2(F)F)c(=O)n1` [Gem, gemcitabine] the “in vitro release from ISFI” value [1] was “exhibited sustained release in vitro”.

With `C[C@H]1CO[C@@H]2Cn3cc(C(=O)NCc4ccc(F)cc4F)c(=O)c(O)c3C(=O)N12` [CAB—Na salt, Cabotegravir sodium] the “Saturation Solubility” value ([2]; solvent DMSO) was 31.6 ± 0.96 mg/mL, the “Saturation Solubility” value ([2]; solvent NMP) was 47.5 ± 1.72 mg/mL and the “Saturation Solubility” value ([2]; solvent NMP:DMSO (1:1 w/w)) was 49.1 ± 1.2 mg/mL. For the same compound, the “Saturation Solubility” value ([2]; solvent PBS + 2% Solutol) was 1.83 ± 0.7 mg/mL.

For `C#C[C@]1(O)CC[C@H]2[C@@H]3CCC4=CC(=O)CC[C@@H]4[C@H]3C(=C)C[C@@]21CC` [ENG, entonogestrel], the “in vitro release as single-drug ISFI versus co-formulated” value [3] was “no difference (p>0.05)”, the “in vitro release as single-drug ISFI versus co-formulated with CAB” value ([3]; beyond 60 days) was “significantly different (p<0.05)” and the “plasma concentrations over the study” value ([4]; mouse, in vivo) was “maintained during the 90-day study”.

For `C#C[C@]1(CO)O[C@@H](n2cnc3c(N)nc(F)nc32)C[C@@H]1O` [EFdA, Islatravir], the “24 h-Burst” value [5, 8] was 64%, the “Depot Forming” value [5, 8] was “YES” and the “24 h-Burst” value [5, 9] was 58%. For the same compound, the “Depot Forming” value [5, 9] was “YES”, the “suspension formation when loaded above saturation concentration in PLGA/solvent placebo” value (shortened to “suspension formation … in PLGA/solvent placebo”) [6] was “did not form successful suspensions” and the “depot formation when injected into aqueous release medium” value (“depot formation” below) [6] was “did not form a stable spherical depot”.

For `C[C@H]1CO[C@@H]2Cn3cc(C(=O)NCc4ccc(F)cc4F)c(=O)c(O)c3C(=O)N12` [CAB, Cabotegravir], the “4×PA-IC90” value (HIV) is listed as 0.664 µg/mL, the “1×PA-IC90” value (HIV) is listed as 0.166 µg/mL and the CL [7] is listed as 151 mL/h. For the same compound, the Q [7] was 507 mL/h, the V2 [7] was 5270 mL and the V3 [7] was 2430 mL. For the same compound, the “in vitro release as single-drug ISFI versus co-formulated” value [3] was “comparable (p>0.05)”, the “suspension formation … in PLGA/solvent placebo” value [6] was “formed stable syringeable formulations” and the “depot formation” value [6] was “formation of stable depots”. The “plasma concentrations when co-formulated with either hormone (MPA or ENG)” value ([4]; mouse, in vivo) was “no difference (p>0.05)”, the solubility ([2]; (NMP:DMSO 1:1 w/w):Tween 20 (9:1 w/w), organic solvent or mixture, solvent (NMP:DMSO 1:1 w/w):Tween 20 (9:1 w/w)) was 107 ± 3.05 mg/mL and the solubility [2, 10] was 38 mg/mL. For the same compound, the solubility ([2]; NMP:DMSO (2:8 w/w), organic solvent or mixture, solvent NMP:DMSO (2:8 w/w)) was 52.2 ± 6.39 mg/mL, the solubility ([2]; NMP:DMSO (9:1 w/w), organic solvent or mixture, solvent NMP:DMSO (9:1 w/w)) was 144 ± 1.99 mg/mL and the solubility ([2]; NMP:Gelucire 44/14 (9:1 w/w), organic solvent or mixture, solvent NMP:Gelucire 44/14 (9:1 w/w)) was 134 ± 3.81 mg/mL. It also gave a solubility ([2]; NMP:HP-b-CD (6:4 w/w), organic solvent or mixture, solvent NMP:HP-b-CD (6:4 w/w)) of 89.6 ± 5.49 mg/mL, a solubility ([2]; NMP:HP-b-CD (9:1 w/w), organic solvent or mixture, solvent NMP:HP-b-CD (9:1 w/w)) of 158.2 ± 1.12 mg/mL and a solubility ([2]; NMP:b-CD (6:4 w/w), organic solvent or mixture, solvent NMP:b-CD (6:4 w/w)) of 81.8 ± 2.35 mg/mL. For the same compound, the solubility ([2]; PBS, aqueous buffer, solvent PBS) was 0.014 ± 0.001 mg/mL, the “Saturation Solubility” value ([2]; solvent DMSO) was 38.0 mg/mL and the “Saturation Solubility” value ([2]; solvent NMP) was 131.7 ± 3.66 mg/mL. For the same compound, the “Saturation Solubility” value ([2]; solvent NMP:DMSO (1:1 w/w)) was 167.12 ± 12.04 mg/mL and the “Saturation Solubility” value ([2]; solvent PBS + 2% Solutol) was 0.06 ± 0.002 mg/mL.

With `Nc1ccn([C@@H]2CS[C@H](CO)O2)c(=O)n1` [3TC, lamuvidine] the “suspension formation … in PLGA/solvent placebo” value [6] was “did not form successful suspensions”.

In the case of `C[C@@H]1CCO[C@H]2Cn3cc(C(=O)NCc4ccc(F)cc4F)c(=O)c(O)c3C(=O)N12` [DTG, Dolutegravir], the “4×PA-IC90” value (HIV) is given as 0.256 µg/mL, the “1×PA-IC90” value (HIV) is given as 0.064 µg/mL and the “suspension formation … in PLGA/solvent placebo” value [6] is given as “formed stable syringeable formulations”. For the same compound, the “depot formation” value [6] was “formation of stable depots”, the “plasma concentrations when co-formulated with either hormone (MPA or ENG)” value ([4]; mouse, in vivo) was “no difference (p>0.05)” and the solubility [2, 10] was 55 ± 4.5 mg/mL. The solubility ([2]; NMP, organic solvent or mixture, solvent NMP) was 269 ± 7.25 mg/mL, the solubility ([2]; NMP:DMSO (1:1 w/w), organic solvent or mixture, solvent NMP:DMSO (1:1 w/w)) was 229.3 ± 1.6 mg/mL and the “Saturation Solubility” value ([2]; solvent PBS + 2% Solutol) was 0.56 ± 0.004 mg/mL.

For `CC(=O)O[C@H]1C(=O)[C@@]2(C)[C@H]([C@H](OC(=O)c3ccccc3)[C@]3(O)C[C@H](OC(=O)[C@H](O)[C@@H](NC(=O)c4ccccc4)c4ccccc4)C(C)=C1C3(C)C)[C@]1(OC(C)=O)CO[C@@H]1C[C@@H]2O` [PTX, paclitaxel], the “in vitro release from ISFI” value [1] was “exhibited sustained release in vitro”, the “burst release in 24 h” value ([1]; ISFI) was less than 2% and the sustained release duration ([1]; ISFI) was greater than 60 days.

With `CC(=O)O[C@]1(C(C)=O)CC[C@H]2[C@@H]3C[C@H](C)C4=CC(=O)CC[C@]4(C)[C@H]3CC[C@@]21C` [MPA, medroxyprogesterone acetate] the “in vitro release as single-drug ISFI versus co-formulated” value [3] was “difference (p<0.05)”, the “best-fit model of in vivo release” value ([4]; MPT ISFIs, 90-day PK) was “zero-order release model” and the “plasma concentrations over the study” value ([4]; in MPT ISFIs, 90-day study) was “maintained during the 90-day study”. For the same compound, the solubility ([2]; organic solvent or mixture, solvent NMP:DMSO (1:1 w/w)) was 33.6 ± 0.9 mg/mL.
